Reference: patent publication US20210113492A1, “METHOD FOR INHIBITING PROLIFERATION AND METASTASIS OF CANCER CELLS BY USING NAPHTHOQUINONE DERIVATIVE” (National Tsing Hua University, priority 2019, published 2021)

Biological target: T1, NQO1 (Homo sapiens, UniProt P15559)
T1 construct: endogenous in cells; host or cells: OC3-IV2 (human oral squamous cell carcinoma), cytosolic fraction / lysate supernatant
Assay: NQO1 enzymatic activity assay (substrate reduction with NADH and WST1)
Format: biochemical
Conditions: cytosolic fractions of OC3-IV2 cells; isoplumbagin 5 μM and 10 μM, menadione 1X and 2X
Protocol: FIG. 4 proves that isoplumbagin is a substrate of NQO1. The cytosolic fractions of OC3-IV2 cells were used for the NQO1 enzymatic activity assay. The NQO1 enzyme activity was calculated by measuring the simultaneous reduction of menadione or isoplumbagin with cofactor NADH and WST1 (a highly sensitive tetrazolium reagent) which leads to increased absorbance at 450 nm. NQO1 activity assay kit (#ab184867) was purchased from Abcam (Cambridge, Mass., USA). OC3-IV2 cells were lysed with 1X extraction buffer containing 1 mM phenylmethylsulfonyl fluoride (PMSF) for 15 min on ice, and then centrifuged at 17,000×g at 4° C. for 20 min. The supernatant was collected and then the protein concentration of each sample was determined by BCA assays (Santa Cruz Biotechnology). Diluted sample and reaction buffer were added into 96-wells plate containing menadione (1X and 2X) or different concentrations of isoplumbagin (5 μM and 10 μM) with cofactor NADH and WST1. The absorbance of reduced WST1 was measured at 450 nm wavelengths by a spectrophotometer. Data from three independent experiments are presented as mean ±SEM (*P<0.05 compared with no substrate, paired Student's t-test).

T1 sequence (P15559 whole entry): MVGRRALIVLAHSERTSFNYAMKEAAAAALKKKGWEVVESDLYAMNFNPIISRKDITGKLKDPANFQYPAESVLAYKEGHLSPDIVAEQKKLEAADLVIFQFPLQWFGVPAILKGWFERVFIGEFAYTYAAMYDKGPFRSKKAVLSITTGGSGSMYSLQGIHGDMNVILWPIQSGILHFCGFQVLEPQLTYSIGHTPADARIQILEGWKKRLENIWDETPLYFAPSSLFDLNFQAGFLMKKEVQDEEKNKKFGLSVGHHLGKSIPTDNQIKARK

substrate of NQO1 (reduction with NADH and WST1, absorbance at 450 nm): substrates of NQO1
Compound: CC1=CC(=O)c2ccccc2C1=O [menadione, reference compound]
